Patent US7601745B2, “Heterocyclic NF-kB inhibitors” (4SC AG, priority 2004, dated 2009)

Test system: A549-NF-κB-SEAP reporter cells
Assay: Inhibition of NF-κB-induced inflammation ([…] NINA Instant Assay, SEAP reporter)
Type: cell-based
Conditions: for Biological activity (NF-κB inflammation assay, inhibition): TNF-α stimulated reporter cells, test concentration not given
In short: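 Reporter cells reactivated 18 h at 37° C, pre-incubated 4.5 h with compound (0.01 up to 100 μM), then stimulated with 2 ng/ml TNF-α for 22 h. SEAP measured by CSPD chemiluminescence (40 min) after endogenous phosphatase inactivation; EC50 fitted from quadruplicates.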

CNc1ccc(Cl)cc1C1c2ccccc2CCN1C(=O)c1csc(C2CCN(C(=O)Cc3ccc(F)cc3)CC2)n1 (stereo not shown) [compound 235]
Biological activity (NF-κB inflammation assay, inhibition) (compounds of formula (Ic)): + (“+” stands for 50-80% inhibition)

O=C(c1csc(N2CCN(c3ccccc3)CC2)n1)N1CCN(c2cccc(C(F)(F)F)c2)CC1 [compound 68]
Biological activity (NF-κB inflammation assay, inhibition) (compounds of formula (II)): + (“+” stands for 50-80% inhibition)

COc1nc(OC)nc(N2CCN(C(=O)c3csc(C4CCN(C(=O)Cc5ccc(F)cc5)CC4)n3)CC2)n1 [compound 126]
Biological activity (NF-κB inflammation assay, inhibition) (compounds of formula (I)): + (“+” stands for 50-80% inhibition)

O=C(c1csc(C2CCN(Cc3ccccc3)CC2)n1)N1CCN(c2cccc(C(F)(F)F)c2)CC1 [compound 177]
Biological activity (NF-κB inflammation assay, inhibition) (compounds of formula (I)): + (“+” stands for 50-80% inhibition)

O=C(c1csc(C2CCN(C(=O)c3cccs3)CC2)n1)N1CCN(c2cccc(C(F)(F)F)c2)CC1 [compound 212]
Biological activity (NF-κB inflammation assay, inhibition) (compounds of formula (I)): + (“+” stands for 50-80% inhibition)

O=C(C=Cc1ccccc1)N1CCC(c2nc(C(=O)N3CCN(c4cccc(C(F)(F)F)c4)CC3)cs2)CC1 [compound 214]
Biological activity (NF-κB inflammation assay, inhibition) (compounds of formula (I)): ++ (“++” means 80-90%)

O=C(c1csc(C2CCN(S(=O)(=O)c3ccc(Br)s3)CC2)n1)N1CCN(c2cccc(C(F)(F)F)c2)CC1 [compound 203]
Biological activity (NF-κB inflammation assay, inhibition) (compounds of formula (I)): + (“+” stands for 50-80% inhibition)

COc1ccccc1C(=O)N1CCN(c2nc(C(=O)N3CCN(c4cccc(C(F)(F)F)c4)CC3)cs2)CC1 [compound 38]
Biological activity (NF-κB inflammation assay, inhibition) (compounds of formula (II)): +++ (“+++” stands for 90-100% inhibition)

CN(C(=O)c1csc(C2CCN(C(=O)c3ccccc3OC(F)(F)F)CC2)n1)C(CN1CCOCC1)c1ccccc1 (stereo not shown) [compound 147]
Biological activity (NF-κB inflammation assay, inhibition) (compounds of formula (I)): + (“+” stands for 50-80% inhibition)

COc1ccccc1N1CCN(C(=O)c2csc(C3CCN(C(=O)Cc4ccc(F)cc4)CC3)n2)CC1 [compound 229]
Biological activity (NF-κB inflammation assay, inhibition) (compounds of formula (I)): + (“+” stands for 50-80% inhibition)

O=C(c1csc(C2CCN(S(=O)(=O)c3ccc(OC(F)(F)F)cc3)CC2)n1)N1CCN(c2cccc(C(F)(F)F)c2)CC1 [compound 205]
Biological activity (NF-κB inflammation assay, inhibition) (compounds of formula (I)): + (“+” stands for 50-80% inhibition)

COc1ccc(OC)c(N2CCC(c3nc(C(=O)N4CCN(c5cccc(C(F)(F)F)c5)CC4)cs3)CC2)c1 [compound 29]
Biological activity (NF-κB inflammation assay, inhibition) (compounds of formula (I)): ++ (“++” means 80-90%)

O=C(c1csc(C2CCN(C(=O)C3COc4ccccc4O3)CC2)n1)N1CCN(c2cccc(C(F)(F)F)c2)CC1 (stereo not shown) [compound 217]
Biological activity (NF-κB inflammation assay, inhibition) (compounds of formula (I)): +++ (“+++” stands for 90-100% inhibition)

O=C(c1ccc2nccnc2c1)N1CCC(c2nc(C(=O)N3CCN(c4cccc(C(F)(F)F)c4)CC3)cs2)CC1 [compound 211]
Biological activity (NF-κB inflammation assay, inhibition) (compounds of formula (I)): + (“+” stands for 50-80% inhibition)

COc1nc(OC)nc(N2CCC(c3nc(C(=O)N4CCN(c5cccc(C(F)(F)F)c5)CC4)cs3)CC2)n1 [compound 176]
Biological activity (NF-κB inflammation assay, inhibition) (compounds of formula (I)): + (“+” stands for 50-80% inhibition)

O=C(O)c1cc(Cl)c(Cl)cc1C(=O)N1CCC(c2nc(C(=O)N3CCN(c4cccc(C(F)(F)F)c4)CC3)cs2)CC1 [compound 187]
Biological activity (NF-κB inflammation assay, inhibition) (compounds of formula (I)): + (“+” stands for 50-80% inhibition)

COc1cccc(N2CCC(c3nc(C(=O)N4CCN(c5cccc(C(F)(F)F)c5)CC4)cs3)CC2)c1 [compound 178]
Biological activity (NF-κB inflammation assay, inhibition) (compounds of formula (I)): + (“+” stands for 50-80% inhibition)

COc1cc2c(cc1OC)C(C)N(C(=O)c1csc(C3CCN(C(=O)Cc4ccc(F)cc4)CC3)n1)CC2 (stereo not shown) [compound 234]
Biological activity (NF-κB inflammation assay, inhibition) (compounds of formula (Ic)): + (“+” stands for 50-80% inhibition)

O=C(c1ccc(C(F)(F)F)c(F)c1)N1CCN(c2nc(C(=O)N3CCN(c4cccc(C(F)(F)F)c4)CC3)cs2)CC1 [compound 60]
Biological activity (NF-κB inflammation assay, inhibition) (compounds of formula (II)): +++ (“+++” stands for 90-100% inhibition)

CC(=O)c1ccc(N2CCN(c3nc(C(=O)N4CCN(c5cccc(C(F)(F)F)c5)CC4)cs3)CC2)cc1 [compound 66]
Biological activity (NF-κB inflammation assay, inhibition) (compounds of formula (II)): ++ (“++” means 80-90%)

O=C(Nc1cccc(F)c1)N1CCC(c2nc(C(=O)N3CCN(c4cccc(C(F)(F)F)c4)CC3)cs2)CC1 [compound 142]
Biological activity (NF-κB inflammation assay, inhibition) (compounds of formula (Ia)): ++ (“++” means 80-90%)

O=C(Nc1nc(C(=O)N2CCN(c3cccc(C(F)(F)F)c3)CC2)cs1)Nc1ccccc1OC(F)(F)F [compound 55]
Biological activity (NF-κB inflammation assay, inhibition) (compounds of formula (II)): +++ (“+++” stands for 90-100% inhibition)

N=C(NC(=O)c1csc(NC(=O)c2ccc(C(F)(F)F)cc2)n1)Nc1nc2ccccc2[nH]1 [compound 51]
Biological activity (inhibition in the NF-κB inflammation assay): +++ (“+++” stands for 90-100% inhibition)

O=C(c1csc(C2CCN(C(=O)c3ccccc3OC(F)(F)F)CC2)n1)N(Cc1ccc(Cl)cc1)Cc1ccc(Cl)cc1 [compound 110]
Biological activity (NF-κB inflammation assay, inhibition) (compounds of formula (I)): + (“+” stands for 50-80% inhibition)

O=C(c1csc(C2CCN(Cc3cccc(OC(F)(F)F)c3)CC2)n1)N1CCN(c2cccc(C(F)(F)F)c2)CC1 [compound 115]
Biological activity (NF-κB inflammation assay, inhibition) (compounds of formula (I)): ++ (“++” means 80-90%)

O=C(Nc1nc(C(=O)N2CCN(c3ccc(Cl)c(Cl)c3)CC2)cs1)c1ccccc1OC(F)(F)F [compound 41]
Biological activity (NF-κB inflammation assay, inhibition) (compounds of formula (II)): +++ (“+++” stands for 90-100% inhibition)

O=C(Nc1nc(C(=O)N2CCN(C(c3ccccc3)c3ccccc3)CC2)cs1)c1ccccc1OC(F)(F)F [compound 58]
Biological activity (NF-κB inflammation assay, inhibition) (compounds of formula (II)): ++ (“++” means 80-90%)

CCCS(=O)(=O)c1ccc2[nH]c(NC(=O)c3csc(C4CCN(C(=O)c5ccccc5OC(F)(F)F)CC4)n3)nc2c1 [compound 52]
Biological activity (inhibition in the NF-κB inflammation assay): +++ (“+++” stands for 90-100% inhibition)

O=C(c1csc(C2CCN(Cc3ccc(F)cc3Cl)CC2)n1)N1CCN(c2cccc(C(F)(F)F)c2)CC1 [compound 171]
Biological activity (NF-κB inflammation assay, inhibition) (compounds of formula (I)): + (“+” stands for 50-80% inhibition)

O=C(Cc1ccc(F)cc1)N1CCC(c2nc(C(=O)N3CCc4cc(O)c(O)cc4C3)cs2)CC1 [compound 160]
Biological activity (NF-κB inflammation assay, inhibition) (compounds of formula (Ic)): + (“+” stands for 50-80% inhibition)

O=C(c1csc(C2CCN(S(=O)(=O)c3ccc(F)cc3Cl)CC2)n1)N1CCN(c2cccc(C(F)(F)F)c2)CC1 [compound 195]
Biological activity (NF-κB inflammation assay, inhibition) (compounds of formula (I)): + (“+” stands for 50-80% inhibition)

COc1cc(N2CCC(c3nc(C(=O)N4CCN(c5cccc(C(F)(F)F)c5)CC4)cs3)CC2)nc(OC)n1 [compound 164]
Biological activity (NF-κB inflammation assay, inhibition) (compounds of formula (I)): ++ (“++” means 80-90%)

CC(c1cc2ccccc2[nH]1)N(C)C(=O)c1csc(C2CCN(C(=O)c3ccccc3OC(F)(F)F)CC2)n1 (stereo not shown) [compound 145]
Biological activity (NF-κB inflammation assay, inhibition) (compounds of formula (I)): + (“+” stands for 50-80% inhibition)

O=C(c1csc(N2CCN(Cc3ccccc3)CC2)n1)N1CCN(c2cccc(C(F)(F)F)c2)CC1 [compound 72]
Biological activity (NF-κB inflammation assay, inhibition) (compounds of formula (II)): +++ (“+++” stands for 90-100% inhibition)
